Reference: patent US20120184504A1, “"The Use of a PAR-1 Antagonist in Combination with a P2Y12 ADP Receptor Antagonist for Inhibition of Thrombosis"” (priority 2009, published 2012)

Tests used:
Type in all cases: in vivo, cynomolgus monkeys
[1] = Activated clotting time (ACT) in whole blood, Folts model animals; settings: for ACT: i.v.; for effect on ACT: tested doses
Method: (§1) Animals instrumented to produce CFRs were administered SCH 602539, cangrelor, or a combination of SCH 602539 and cangrelor. The dosing regimens of SCH 602539 were selected to provide a broad range of inhibition of platelet aggregation induced by 1 μM thrombin receptor agonist peptide (TRAP), whereas the doses of cangrelor were selected to achieve 50%-60% inhibition of platelet aggregation induced by 10 μM ADP (the degree of inhibition obtained with clopidogrel). Group 1 received drug vehicle only (20% hydroxypropyl betacyclodextran or saline, 2 mL i.v.). Group 2 received SCH 602539 dissolved in 20% hydroxypropyl betacyclodextran administered as sequential i.v. boluses of 0.1, 0.3, or 1 mg/kg, at 30-minute intervals. Group 3 received cangrelor dissolved in saline and administered as an intravenous infusion of 0.1, 0.2, or 0.3 μg/kg/min for 30 minutes each. Group 4 received a combination of SCH 602539 bolus plus cangrelor infusion (at respective doses of: 1) 0.05 mg/kg+0.05 μg/kg/min; 2) 0.1 mg/kg+0.1 μg/kg/min; and 3) 0.15 mg/kg+0.1 μg/kg/min. The three dose regimens within each group were administered sequentially over the consecutive 30-minute periods coinciding with the re-induction of endothelial injury. Study drug or vehicle was administered after stable CFRs were achieved, and upon the completion of a 30-minute baseline CFR collection period, drug(s) or vehicle were administered incrementally (every 30 minutes) either as a bolus (SCH 602539) or as an infusion (cangrelor), and their effects on CFRs were monitored in the next three 30-minute observation periods. Blood samples (3 mL) were collected from the femoral arterial catheter at the end of each 30-minute observation period for assessment of ex vivo platelet aggregation and coagulation parameters.
(§2) Platelet aggregation studies were performed ex viva on blood samples obtained from the monkeys subjected to the Folts model, using a ChronoLog whole blood aggregometer (Model 540VS, Havertown, Pa.). Briefly, 0.5 mL of blood was incubated with 0.5 mL of normal saline at 37° C. in a cuvette containing a stir bar for 2 minutes. Platelet agonists used in this study included TRAP (3 μM), ADP (10 μM), the thromboxane A2 mimetic U46619 (10 μM), and collagen (3 μg/mL). Platelet aggregation was monitored for 5 minutes following the addition of the agonist. The peak aggregation response was recorded in ohms. In addition, standard coagulation parameters, including prothrombin time (PT), activated partial thromboplastin time (APTT), and activated clotting time (ACT), were assessed.
(§3) PT and APTT assays were performed with plasma, while the ACT assay was performed with whole blood. Data are presented as mean±SEM (n=5-6/group).

[2] = tested on: platelet aggregation induced by ADP (10 μM); assay: Ex vivo whole blood platelet aggregation induced by ADP
Method: as §1, §2

[3] = Prothrombin time (PT) in plasma, Folts model animals; settings: for PT: i.v.; for effect on PT: tested doses
Method: as §1, §2, §3

## CSCCNc1nc(SCCC(F)(F)F)nc2c1ncn2[C@@H]1O[C@H](COP(=O)(O)OP(=O)(O)C(Cl)(Cl)P(=O)(O)O)[C@@H](O)[C@H]1O [Cangrelor]
[1]; Cangrelor 0.1 μg/kg/min × 30 min, whole blood, baseline 77 ± 3.7
  ACT: 79 ± 2.3 s
[1]; Cangrelor 0.2 μg/kg/min × 30 min, baseline 77 ± 3.7
  ACT: 76 ± 1.7 s
[1]; Cangrelor 0.3 μg/kg/min × 30 min, baseline 77 ± 3.7
  ACT: 74 ± 3.5 s
[1]
  effect on ACT: no effect
[2]; Cangrelor 0.1 μg/kg/min, baseline 14 ± 3
  Aggregation, ADP: 10 ± 2 ohms
[2]; Cangrelor 0.2 μg/kg/min, baseline 14 ± 3
  Aggregation, ADP: 7 ± 1 ohms
[2]; Cangrelor 0.3 μg/kg/min, baseline 14 ± 3
  Aggregation, ADP: 6 ± 1 ohms
[3]; Cangrelor 0.1 μg/kg/min × 30 min, plasma, mean±SEM, baseline 10.6 ± 0.4
  PT: 10.4 ± 0.3 s
[3]; Cangrelor 0.2 μg/kg/min × 30 min, baseline 10.6 ± 0.4
  PT: 10.8 ± 0.6 s
[3]; Cangrelor 0.3 μg/kg/min × 30 min, baseline 10.6 ± 0.4
  PT: 10.7 ± 0.6 s
[3]
  effect on PT: no effect

## CCOC(=O)N[C@@H]1CC[C@@H]2[C@@H](C1)C[C@H]1C(=O)O[C@H](C)[C@H]1[C@H]2/C=C/c1ccc(-c2ccccn2)cn1 [SCH 602539]
[1]; SCH 602539 0.1 mg/kg, bolus, whole blood, baseline 79 ± 5.9
  ACT: 73 ± 2.2 s
[1]; SCH 602539 0.3 mg/kg, bolus, baseline 79 ± 5.9
  ACT: 71 ± 4.4 s
[1]; SCH 602539 1.0 mg/kg, bolus, baseline 79 ± 5.9
  ACT: 67 ± 4.9 s
[1]
  effect on ACT: no effect
[2]; SCH 602539 0.1 mg/kg, baseline 15 ± 3
  Aggregation, ADP: 14 ± 2 ohms
[2]; SCH 602539 0.3 mg/kg and 1 mg/kg
  effect on aggregation induced by 10 μM ADP: did not affect
[2]; SCH 602539 0.3 mg/kg, baseline 15 ± 3
  Aggregation, ADP: 16 ± 3 ohms
[2]; SCH 602539 1.0 mg/kg, baseline 15 ± 3
  Aggregation, ADP: 13 ± 4 ohms
[3]; SCH 602539 0.1 mg/kg, bolus, plasma, baseline 11.6 ± 0.4
  PT: 11.5 ± 0.2 s
[3]; SCH 602539 0.3 mg/kg, bolus, baseline 11.6 ± 0.4
  PT: 11.8 ± 0.4 s
[3]; SCH 602539 1.0 mg/kg, bolus, baseline 11.6 ± 0.4
  PT: 12.8 ± 1.1 s
[3]
  effect on PT: no effect
